We go through twelve molecules from article PMC11044139, “Comparative Study of Toxic Terpenoidal Aldehydes and Lactone Derivatives from the European Polypore Bondarzewia mesenterica” (ACS Omega, 2024).

What is called MIC is the smallest concentration in the dilution series that meets the test's criterion for growth inhibition. As a reminder, the IC50 is the concentration needed to halve the response being measured.

Holding throughout (format): cell-based
In series [1] the test system is Escherichia coli (DSM 1116). The series can be described thus: Antimicrobial assay (MIC), E. coli. The note with it: overnight incubation, n.i. = no inhibition up to 67 μg/mL. The protocol:
(§1) The antimicrobial effects of the isolated compounds were determined using our established protocols.[19] Generally, an array of clinically relevant microorganisms consisting of bacteria, namely, S. aureus (DSM 346), A. baumanii (DSM 30008), B. subtilis (DSM 10), E. coli (DSM 1116), P. aeruginosa (PA14), C. violaceum (DSM 30191), and M. smegmatis (ATCC 700084), and fungi including M. hiemalis (DSM 2656), C. albicans (DSM 1665), R. glutinis (DSM 10134), S. pombe (DSM 70572), and P. anomala (DSM 6766), were used. […] The minimum inhibitory concentrations (MIC) were recorded after an overnight incubation as the lowest concentration under which no microbial growth was visualized. The microorganisms were obtained from the German Collection of Microorganisms and Cell Cultures (DSMZ, Braunschweig, Germany).

The test system of series [2] is human endocervical adenocarcinoma (KB3.1). The experiment in a line: Cytotoxicity (MTT) assay, KB3.1. An excerpt:
(§2) MTT (3-(4,5-dimethylthiayol-2-yl)-2,5-diphenyltetrazolium bromide)-based assay was used to determine in vitro cytotoxicity as previously reported.[24] The tested mammalian cell lines included mouse fibroblasts (L929), endocervical adenocarcinoma (KB3.1), human lung carcinoma (A549), breast adenocarcinoma (MCF-7), prostate carcinoma (PC-3), and epidermoid carcinoma cells (A431).

The subject of series [3] is Candida albicans (DSM 1665). The experiment in a line: Antimicrobial assay (MIC), C. albicans. The note with it: overnight incubation, n.i. = no inhibition up to 67 μg/mL. The protocol: as §1
Series [4] has as its system Mycobacterium smegmatis (ATCC 700084). The experiment in a line: Antimicrobial assay (MIC), M. smegmatis. The note with it: Mycobacterium smegmatis; overnight incubation; n.i. = no inhibition up to 67 μg/mL. The protocol: as §1
For series [5], the system named is Mucor hiemalis (DSM 2656). The experiment in a line: Antimicrobial assay (MIC), M. hiemalis. The note with it: n.i. = no inhibition up to 67 μg/mL. The protocol:
as §1

Series [6] relates to Pseudomonas aeruginosa (PA14). The series can be described thus: Antimicrobial assay (MIC), P. aeruginosa. The note with it: overnight incubation, n.i. = no inhibition up to 67 μg/mL. The protocol:
as §1

In series [7] the test system is Bacillus subtilis (DSM 10). The series can be described thus: Antimicrobial assay (MIC), B. subtilis. The note with it: n.i. = no inhibition up to 67 μg/mL. The protocol:
as §1

For a further series, the system named is mouse fibroblast (L929). The series can be described thus: Cytotoxicity (MTT) assay, L929.
Excerpt: as §2

Series [8] relates to Acinetobacter baumanii (DSM 30008). The series can be described thus: Antimicrobial assay (MIC), A. baumanii. The note with it: overnight incubation, n.i. = no inhibition up to 67 μg/mL. The protocol:
as §1

The subject of series [9] is Rhodotorula glutinis (DSM 10134). The experiment in a line: Antimicrobial assay (MIC), R. glutinis. The note with it: overnight incubation, n.i. = no inhibition up to 67 μg/mL. The protocol: as §1
Series [10] has as its system Staphylococcus aureus (DSM 346). The series can be described thus: Antimicrobial assay (MIC), S. aureus. The note with it: n.i. = no inhibition up to 67 μg/mL. The protocol: as §1
Series [11] has as its system Schizosaccharomyces pombe (DSM 70572). The experiment in a line: Antimicrobial assay (MIC), S. pombe. The note with it: overnight incubation, n.i. = no inhibition up to 67 μg/mL. The protocol: as §1
Series [12] has as its system Chromobacterium violaceum (DSM 30191). The series can be described thus: Antimicrobial assay (MIC), C. violaceum. The note with it: overnight incubation, n.i. = no inhibition up to 67 μg/mL. The protocol: as §1
Series [13] deals with Pichia anomala (DSM 6766). The series can be described thus: Antimicrobial assay (MIC), P. anomala. The note with it: Pichia anomala; overnight incubation; n.i. = no inhibition up to 67 μg/mL. The protocol:
as §1

Series [14] concerns human breast adenocarcinoma (MCF-7). The experiment in a line: Cytotoxicity (MTT) assay, MCF-7. The note with it: MCF7, read-out: IC50, positive control epothilone B. An excerpt: (§3) MTT (3-(4,5-dimethylthiayol-2-yl)-2,5-diphenyltetrazolium bromide)-based assay was used to determine in vitro cytotoxicity as previously reported.[24] The tested mammalian cell lines included mouse fibroblasts (L929), endocervical adenocarcinoma (KB3.1), human lung carcinoma (A549), breast adenocarcinoma (MCF-7), prostate carcinoma (PC-3), and epidermoid carcinoma cells (A431). Epothilone B was used as a positive control.

For series [15], the system named is human ovarian cancer (SKOV-3). The experiment in a line: Cytotoxicity (MTT) assay, SKOV-3. The note with it: SK-OV-3, read-out: IC50, positive control epothilone B.
Series [16] concerns human epidermoid carcinoma (A431). The series can be described thus: Cytotoxicity (MTT) assay, A431. The note with it: A-431, read-out: IC50, positive control epothilone B.
Excerpt: as §3

Series [17] concerns human lung carcinoma (A549). The experiment in a line: Cytotoxicity (MTT) assay, A549. The note with it: A549, read-out: IC50, positive control epothilone B.
Excerpt: as §3

Series [18] relates to human prostate carcinoma (PC-3). The experiment in a line: Cytotoxicity (MTT) assay, PC-3. The note with it: PC-3, read-out: IC50, positive control epothilone B.
Excerpt: as §3

Where [19] appears, read: DSM346, overnight incubation, read-out: MIC.

Values after ≈ are worked out from the molar mass of the structure shown. Where two headings read alike, the source gives them in different places.

As for `CC(C)=CCC(/C=C(\CO)CCO)C(=O)O` (centres unmarked) [Compound 3, sterepinic acid A], the MIC result in series [1], in [3], in [4], in series [5] (overnight incubation), in series [6] and in series [7] (overnight incubation) was “n.i” throughout. For the same molecule, the MIC result is “n.i” in [8]; “n.i” in series [9]; 66.6 µg/mL (≈ 292 µM) in series [10] (setting [19]); “n.i” in series [11]; “n.i” in series [12]; “n.i” in [13]. The “cytotoxicity (in words)” value (in series [2]; with mouse fibroblast (L929)) was “non-cytotoxic” throughout.

For the molecule `CC(C)(O)[C@H]1C[C@H](CC2=CC(=O)OC2)C(=O)O1` [Compound 5, vibralactones Z2], the minimum inhibitory concentration (MIC) entry in [1], in [3], in series [4], in series [5] (overnight incubation), in [6] and in [7] (overnight incubation) was “n.i” throughout. Also, the minimal inhibitory concentration (MIC) entry in [8] was “n.i”; in series [9], “n.i”; in series [10] (setting [19]) it was 66.6 µg/mL (≈ 277 µM); in series [11], “n.i”; in [12], “n.i”; in series [13] it was “n.i”. The “cytotoxicity (in words)” value (in series [2]; in the series on mouse fibroblast (L929)) was “non-cytotoxic” in each case.

For `CN(C)[C@@H]1C(O)=C(C(N)=O)C(=O)[C@@]2(O)C(O)=C3C(=O)c4c(O)cccc4[C@@](C)(O)[C@H]3[C@H](O)[C@@H]12` [oxytetracycline, reference compound], the minimal inhibitory concentration (MIC) in series [7] (DSM10, overnight incubation, read-out: MIC) worked out at 16.6 µg/mL (≈ 36.1 µM).

With `COc1ccc(C(=O)C(C)O)cc1` (centres unmarked) [Compound 12, 2-hydroxy-(4′-methoxy)-propiophenone], the minimal inhibitory concentration (MIC) entry in series [1], in series [3], in series [4], in series [5] (overnight incubation), in series [6] and in [7] (overnight incubation) was “n.i” throughout. Moreover, the minimum inhibitory concentration (MIC) entry in [8], in series [9], in [10] (overnight incubation), in series [11], in series [12] and in series [13] was “n.i” throughout.

For `CC(C)(O)[C@H]1C[C@@H](CC2=CC(=O)OC2)C(=O)O1` [Compound 4, vibralactones Z1], the MIC entry in [1], in series [3], in series [4], in series [5] (overnight incubation), in [6] and in series [7] (overnight incubation) was “n.i” each time. For the same molecule, the minimum inhibitory concentration (MIC) entry in [8], in series [9], in [10] (overnight incubation), in series [11], in series [12] and in series [13] was “n.i” in each case.

Regarding `NC[C@H]1O[C@H](O[C@H]2[C@H](O)[C@@H](O[C@H]3O[C@H](CO)[C@@H](O)[C@H](N)[C@H]3O)[C@H](N)C[C@@H]2N)[C@H](O)[C@@H](O)[C@@H]1O` [kanamycin, reference compound], the MIC in series [4] was 1.70^K μg/mL.

As to `C/C(=C\c1csc(C)n1)[C@@H]1C[C@@H]2O[C@]2(C)CCC[C@H](C)[C@H](O)[C@@H](C)C(=O)C(C)(C)[C@@H](O)CC(=O)O1` [epothilone B, Epothilone B, reference compound], the IC50 in [14] was found to be 0.07 nM; in series [15] it was 0.09 nM; in [16] it was 0.06 nM; in series [17], 0.05 nM; in series [18], 0.09 nM.

Regarding `COc1ccc([C@H](O)[C@H](C)O)cc1` [Compound 11, (4-methoxyphenyl)-1,2-propanediol], the minimal inhibitory concentration (MIC) entry in series [1], in series [3], in [4], in series [5] (overnight incubation), in series [6] and in [7] (overnight incubation) was “n.i” in each case. The MIC result in [8], in series [9], in series [10] (overnight incubation), in series [11], in series [12] and in series [13] was “n.i” in each case.

For the molecule `C[C@@H]1[C@H](O)[C@@H](C)/C=C/C=C/CC/C=C/C=C/C=C/C=C/C(O[C@H]2O[C@H](C)[C@@H](O)[C@H](N)[C@@H]2O)CC2O[C@](O)(CC(O)C(O)CCC(O)CC(O)CC(O)CC(=O)O[C@H]1C)CC(O)C2C(=O)O` (some centres unmarked) [nystatin, reference compound], the MIC in series [3] is 8.30^N μg/mL; in [5] (overnight incubation), 8.30^N μg/mL; in [9], 4.20^N μg/mL; in [11], 8.30^N μg/mL; in [13] it was 8.30^N μg/mL.

On to `CC(C)=CC[C@H]1C=C(CO)C=COC1=O` [Compound 6, 1,5-secovibralactone], for which the MIC result in series [1] is “n.i”; in series [3], “n.i”; in series [4], “n.i”; in series [5] (DSM2656, overnight incubation, read-out: MIC), 66.6 µg/mL (≈ 320 µM); in [6] it was “n.i”; in series [7] (overnight incubation) it was “n.i”. For the same molecule, the minimal inhibitory concentration (MIC) result in series [8], in series [9], in [10] (overnight incubation), in [11], in series [12] and in series [13] was “n.i” throughout.

Consider Gentamycin [reference compound], for which the MIC in [1] is on record as 0.83^G μg/mL; in [6], 0.42^G μg/mL; in [10] (overnight incubation), 0.42^G μg/mL; in [12], 1.67^G μg/mL.

In the case of `CC(C)=CCC(CC1=CC(=O)OC1)C(=O)O` (centres unmarked) [Compound 2, vibralactones J], the minimum inhibitory concentration (MIC) result in series [1], in series [3], in series [4], in [5] (overnight incubation), in series [6] and in series [7] (overnight incubation) was “n.i” throughout. In addition, the minimal inhibitory concentration (MIC) entry in [8], in series [9], in series [10] (overnight incubation), in [11], in series [12] and in series [13] was “n.i” in each case.
